Here are results for 2 molecules from US7439225B2, “Substances K01-B0171 and process for producing the same” (The Kitasato Institute, priority 2003, dated 2008).

SMILES strings stand for the structures. Positions of bridges follow the written chain, without caps; N, C: chain ends. Residues, ends and D or L forms follow the SMILES beside them.

Data set [1] can be described thus: Grouping for acidic, neutral and basic. The class given is physicochemical.
A short description of another data set: Solubility in solvent. The class given is physicochemical.

In the case of `CCC(C)C(NC(=O)C(NC(=O)C(CC(N)=O)NC(=O)C(CO)NC(=O)C(Cc1c[nH]cn1)NC(=O)CNC(=O)C(NC(=O)C(Cc1c[nH]c2ccccc12)NC(=O)C1CCC(=O)NCC(=O)NC(CO)C(=O)NC(CCC(N)=O)C(=O)NC(CC(C)C)C(=O)NC(C(C)C)C(=O)NC(Cc2ccc(O)cc2)C(=O)NC(CCCNC(=N)N)C(=O)N1)C(C)C)C(C)C)C(=O)NC(CCCCN)C(=O)N1CCCC1C(=O)O` (stereo not shown) [K01-B0171-B substance] (GSQLVYREWVGHSNVIKP-OH; lactam N-8; configuration not given here), the “Grouping for acidic, neutral and basic” value in data set [1] is “Weak basic substance”. Besides, in “Solubility in solvent”, the Solubility in solvent result was “soluble in water, dimethyl sulfoxide (DMSO), methanol and ethanol, and insoluble in acetonitrile, ethyl acetate, chloroform and acetone”.
With `CCC(C)C(NC(=O)C(NC(=O)C(CC(N)=O)NC(=O)C(CO)NC(=O)C(Cc1c[nH]cn1)NC(=O)CNC(=O)C(NC(=O)C(Cc1c[nH]c2ccccc12)NC(=O)C1CCC(=O)NCC(=O)NC(CO)C(=O)NC(CCC(N)=O)C(=O)NC(CC(C)C)C(=O)NC(C(C)C)C(=O)NC(Cc2ccc(O)cc2)C(=O)NC(CCCNC(=N)N)C(=O)N1)C(C)C)C(C)C)C(=O)NC(CCCCN)C(=O)NCC(=O)N1CCCC1C(=O)N1CCCC1C(=O)O` (stereo not shown) [K01-B0171-C substance] (GSQLVYREWVGHSNVIKGPP-OH; lactam N-8; configuration not given here), in data set [1], the “Grouping for acidic, neutral and basic” value is on record as “Weak basic substance”. Also, in “Solubility in solvent”, the Solubility in solvent result was “soluble in water, dimethyl sulfoxide (DMSO), methanol and ethanol, and insoluble in acetonitrile, ethyl acetate, chloroform and acetone”.
